Laboratory results published in PubChem BioAssay (NCI).
Values joined by “and” are separate entries in the source; they are usually repeats but may differ in a detail not shown here. Equal values may be shown once.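 Results reflect a 48-hour exposure of cells in 96-well plates to compound at five concentrations. GI50 marks 50% less growth. TGI: total growth inhibition.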

Key:
Experiment in all cases: NCI tumour cell line growth inhibition, 48 h
LXFL 529 NSCLC = tested on: LXFL 529 NSCLC
HOP-18 NSCLC = tested on: HOP-18 NSCLC
M19-MEL melanoma = tested on: M19-MEL melanoma
DLD-1 colon = tested on: DLD-1 colon
DMS 273 small cell lung = tested on: DMS 273 small cell lung
P388/ADR leukemia = tested on: P388/ADR leukemia
DMS 114 small cell lung = tested on: DMS 114 small cell lung
P388 leukemia = tested on: P388 leukemia
SN12K1 renal = tested on: SN12K1 renal
RXF-631 renal = tested on: RXF-631 renal

| Structure (SMILES) | TGI (LXFL 529 NSCLC) [µM] | TGI (HOP-18 NSCLC) | TGI (M19-MEL melanoma) [µM] | TGI (DLD-1 colon) [µM] | TGI (DMS 273 small cell lung) [µM] | TGI (P388/ADR leukemia) [µM] | TGI (DMS 114 small cell lung) [µM] | TGI (P388 leukemia) [µM] | TGI (SN12K1 renal) [µM] | GI50 (DMS 114 small cell lung) [µM] | GI50 (LXFL 529 NSCLC) [µM] | TGI (RXF-631 renal) [µM] | GI50 (HOP-18 NSCLC) [µM] | GI50 (M19-MEL melanoma) [µM] | GI50 (DLD-1 colon) [µM] |
| --- | --- | --- | --- | --- | --- | --- | --- | --- | --- | --- | --- | --- | --- | --- | --- |
| CN(C)/C=C/C(=O)c1cccc(C(=O)/C=C/N(C)C)n1 | > 100 | > 100 µM | > 100 | > 100 | > 100 | – | – | – | – | – | – | – | – | – | – |
| CC1[C@@H]2C[C@@H]3O[C@@]34[C@H]3CCC5Cc6nc7c(nc6C[C@@]5(C)C3(O)CC(=O)[C@@]24CO[C@]12OC(C)(C)CC2O)CC1CC[C@@H]2C3=C[C@H]4O[C@@]5(O[C@@](C)(CO)C[C@@H]5O)C(C)[C@@]4(O)[C@]3(C)[C@@H](O)CC2[C@]1(C)C7 (some centres undefined) | – | > 3.52 µM | > 3.52 | > 3.52 | 0.0177 | 0.232 | 1.09 | 0.357 | 0.666 | – | – | – | – | – | – |
| CN(C)CC(C)(C)C(=O)/C=C/c1ccccc1 | 24.9 | 49.8 µM | 32.2 | 74.3 | 47.7 | – | 29.1 | – | – | – | – | – | – | – | – |
| O=c1cc(-c2ccccc2)[nH]c2c(F)ccc(F)c12 | > 100 | > 100 µM | > 100 | > 100 | > 100 | – | > 100 | – | – | – | – | – | – | – | – |
| COc1cccc2c1C(=O)c1c(O)c3c(c(O)c1C2=O)C[C@@](O)(C(=O)CO)CC3OC1CC(NCCCCC(OC(C)=O)OC(C)=O)C(O)C(C)O1 (some centres undefined) | – | 0.00926 µM and 0.0807 µM | 0.00334 | 0.245 | – | – | 0.00291 | – | – | 0.00083 | 0.00263 | 0.00803 | 0.0078 | 0.00156 | 0.00247 |
| C/C(=N/OCCC(=O)O)C1CC1 | > 100 | > 100 µM | > 100 | > 100 | > 100 | – | > 100 | – | – | – | – | – | – | – | – |
| CCC(C)Cn1c(C)nc2c1C(=O)c1ccccc1C2=O (centres undefined) | > 100 | – | 33.9 | > 100 | 64 | – | – | – | – | – | – | – | – | – | – |
| CN(C)CCSc1nccc(-c2ccc(-c3ccnc(SCCN(C)C)n3)s2)n1 | – | 67.2 µM | 26.6 | 23 | 22.8 | 6.74 | 25.5 | 3.18 | 24.6 | – | – | – | – | – | – |
| O=C(/C=C/c1ccc(OCCCOc2ccc(/C=C/C(=O)c3ccc(Cl)cc3)cc2)cc1)c1ccc(Cl)cc1 | > 100 | > 100 µM | > 100 | > 100 | > 100 | – | > 100 | – | – | – | – | – | – | – | – |
